The test system of this experiment is Fasted Mice. Put plainly: Activity on Glucose Tolerance in Fasted Mice. The experiment is classed as in vivo. The following applies: mice fasted 24 hours, 8 per group; dose 0.2 mmol/kg body weight orally in 1% aqueous carboxymethyl cellulose; glucose 1 g/kg sub-cutaneous 30 minutes later; vehicle control (dose 0) value in the row above; asterisks = significance vs controls. On the procedure:
For this assay mice were fasted for 24 hours before the experiment and then randomised so that each treatment group contained 8 mice. The compounds were dosed orally in 1% aqueous carboxymethyl cellulose (10 ml/kg body weight), and 30 minutes later glucose (1 g/kg) was administered by the sub-cutaneous route. Blood samples for glucose analysis were taken from the tail 60 minutes after glucose administration; the results are shown in the table below.
A standard system for indicating the significance of results with respect to the controls (dose = zero mmol/kg) which received the 1% aqueous carboxymethyl cellulose vehicle only, is as follows: • ** P < 0.05 • *** P < 0.01 • **** P < 0.001
In the following Table, column A represents the dose of compound (mmol/kg body weight) and column B represents the blood glucose concentration (mmol/litre) 60 minutes after sub-cutaneous glucose load.

Consider 7 compounds from patent EP0018134B1, “Dihydropyridine derivatives, processes for their preparation and pharmaceutical compositions containing them” (BEECHAM GROUP PLC, priority 1979, dated 1980).

On to `CCN(CC)C(=Nc1ccccc1)N=c1c(C)cccn1C.I` [Example 10, N,N-diethyl-N'-(1,2-dihydro-1,3-dimethyl-2-pyridylidene)-N"-phenylguanidine hydroiodide], for which the “blood glucose concentration (mmol/litre) 60 minutes after sub-cutaneous glucose load” value is given as 5.54 *** mmol/litre. Take `COC(=O)c1ccc(=NC(=Nc2ccccc2)N2CCOCC2)n(C)c1.I` [Example 13, N-(5-carbomethoxy-1,2-dihydro-1-methyl-2-pyridylidene)-N'-phenyl-4-morpholinecarboxamidine hydroiodide]: the “blood glucose concentration (mmol/litre) 60 minutes after sub-cutaneous glucose load” value is 3.36 ** mmol/litre. `Cn1ccccc1=NC(=Nc1ccccc1)NCc1ccccc1` [Example 4, N-benzyl-N'-(1,2-dihydro-1-methyl-2-pyridylidene)-N"-phenylguanidine]: the “blood glucose concentration (mmol/litre) 60 minutes after sub-cutaneous glucose load” value is reported as 5.36 ** mmol/litre. To `Cc1ccn(C)c(=NC(=Nc2ccccc2)N2CCOCC2)c1.I` [Example 11, N-(1,2-dihydro-1,4-dimethyl-2-pyridylidene)-N'-phenyl-4-morpholinecarboxamidine hydroiodide] belongs 4.47 ** mmol/litre. To `CC1CN(C(=Nc2ccccc2)N=c2ccccn2C)CC(C)O1` (stereo not shown) [Example 3, N-(1,2-dihydro-1-methyl-2-pyridylidene)-N'-phenyl-4-(2,6-dimethylmorpholine)-carboxamidine] belongs 3.48 mmol/L; to `Cn1cc(Br)ccc1=NC(=Nc1ccccc1)N1CCOCC1.I` [Example 12, N-(5-bromo-1,2-dihydro-1-methyl-2-pyridylidene)-N'-phenyl-4-morpholinecarboxamidine hydroiodide], 3.52 *** mmol/litre; to `Cc1ccc(=NC(=Nc2ccccc2)N2CCOCC2)n(C)c1` [Example 14, N-(1,2-Dihydro-1,5-dimethyl-2-pyridylidene)-N'-phenyl-4-morpholinecarboxamidine], 2.53 **** mmol/litre.
